According to patent publication US20260374739A1, “SMALL MOLECULAR WEIGHT CHEMICAL COMPOUND TO ANTAGONIZE EPH-EPHRIN TETRAMERIZATION AND INHIBIT BIDIRECTIONAL SIGNALING” (THE BOARD OF REGENTS OF THE UNIVERSITY OF TEXAS SYSTEM, priority 2022, published 2026):
Values joined by “and” are separate entries in the source; they are usually repeats but may differ in a detail not shown here. Equal entries are not always repeated. Where two headings read alike, the source gives them in different places.

Experiments:
EphrinB2-EphB2 [1] = biological target: T1, EphrinB2-EphB2 (Homo sapiens, UniProt P29323); experiment: Octet tetramerization inhibition, immobilized human EphrinB2 binding to 50 nM soluble human EphB2
T1 construct: soluble human EphB1-His, EphB2-His, and EphB4-His ectodomains; commercially available human EphrinB1-Fc (EB1), EphrinB2-Fc (EB2), and EphrinB3-Fc (EB3) ectodomain proteins; purchased
T1 sequence (P29323 19-543 limits assumed): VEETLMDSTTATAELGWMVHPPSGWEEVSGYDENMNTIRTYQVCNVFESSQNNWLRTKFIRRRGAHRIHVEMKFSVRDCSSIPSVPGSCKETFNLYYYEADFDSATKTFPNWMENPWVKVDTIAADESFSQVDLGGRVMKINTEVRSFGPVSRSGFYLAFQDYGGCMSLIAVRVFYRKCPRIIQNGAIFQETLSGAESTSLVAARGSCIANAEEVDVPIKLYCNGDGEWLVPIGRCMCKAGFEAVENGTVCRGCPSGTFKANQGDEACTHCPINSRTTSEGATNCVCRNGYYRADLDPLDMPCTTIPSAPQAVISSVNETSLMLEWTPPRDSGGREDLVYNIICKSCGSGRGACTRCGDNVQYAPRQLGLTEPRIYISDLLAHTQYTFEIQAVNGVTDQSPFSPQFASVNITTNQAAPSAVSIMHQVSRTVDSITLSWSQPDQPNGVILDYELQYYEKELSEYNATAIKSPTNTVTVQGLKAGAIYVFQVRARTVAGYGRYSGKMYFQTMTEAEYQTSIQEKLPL

EphrinB2-EphB2 [2] = biological target: T1, EphrinB2-EphB2; experiment: Octet 80 sec association/500 sec dissociation, immobilized human EphrinB2-Fc binding to soluble human EphB2-His; conditions: for inhibition of EphrinB2-EphB interactions: 3.2 μM, EphB1, EphB2 and EphB4; for inhibition at 3.2 µM: EphB2, 25 nM EphB2, 3.2 μM compound, A20-I as max control, 0* = less than 0, no inhibition
Procedure, shortened: (§1)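 EphrinB2-Fc captured on AHC biosensors, then soluble His-tagged EphB ectodomain (25 nM for % inhibition runs) associated 80 s and dissociated 500 s in PBS, 0.05% Tween-20, 1% DMSO ± compound. Compounds tested at 0.1–3.2 μM with a 10 μM max standard; IC50 from AUC of full traces or at 75 s and 135 s.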

EphrinB2-EphB1 = biological target: T2, EphrinB2-EphB1 (Homo sapiens, UniProt P54762); experiment: Octet 80 sec association/500 sec dissociation, immobilized human EphrinB2-Fc binding to soluble human EphB1-His; conditions: for inhibition at 3.2 µM: EphB1, 25 nM EphB1, 3.2 μM compound, A20-I as max control, 0* = less than 0, no inhibition
T2 construct: soluble human EphB1-His, EphB2-His, and EphB4-His ectodomains; commercially available human EphrinB1-Fc (EB1), EphrinB2-Fc (EB2), and EphrinB3-Fc (EB3) ectodomain proteins; purchased
T2 sequence (P54762 18-540 limits assumed): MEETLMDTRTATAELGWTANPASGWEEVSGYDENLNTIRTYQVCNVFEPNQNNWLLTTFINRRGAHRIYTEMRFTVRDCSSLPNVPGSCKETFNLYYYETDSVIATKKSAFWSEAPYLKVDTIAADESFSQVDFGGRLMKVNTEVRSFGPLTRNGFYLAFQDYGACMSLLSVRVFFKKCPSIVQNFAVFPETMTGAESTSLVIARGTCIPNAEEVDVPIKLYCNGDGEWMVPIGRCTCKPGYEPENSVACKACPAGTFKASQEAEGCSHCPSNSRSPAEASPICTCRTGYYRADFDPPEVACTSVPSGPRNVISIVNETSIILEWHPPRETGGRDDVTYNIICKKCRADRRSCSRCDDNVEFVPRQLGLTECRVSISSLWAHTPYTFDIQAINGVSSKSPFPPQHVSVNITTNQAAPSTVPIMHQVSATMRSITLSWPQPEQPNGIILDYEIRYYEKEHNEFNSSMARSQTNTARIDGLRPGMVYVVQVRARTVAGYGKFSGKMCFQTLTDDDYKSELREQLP
Procedure, shortened: as §1

[3] = Absolute AUC/IC50, Table A, EphrinB2-EphB2
[4] = Absolute Association IC50 (300 sec), Table A, EphrinB2-EphB2
[5] = Absolute Dissociation IC50 (450 sec), Table A, EphrinB2-EphB2
[6] = Relative AUC/IC50, Table A, EphrinB2-EphB2, compound 7: association only
[7] = Relative Association IC50 (300 sec), Table A, EphrinB2-EphB2
[8] = Relative Dissociation IC50 (450 sec), Table A, EphrinB2-EphB2
[9] = tetramerization inhibitor IC50 (relative), association step, surmountable tetramer
[10] = read-out: % Inhibition: Association + Dissociation (160 sec)
[11] = read-out: % Inhibition: Association ONLY (80 sec)

Row | SMILES | IC50 (EphrinB2-EphB2 [1]; [3]) [nM] | IC50 (EphrinB2-EphB2 [1]; [4]) [nM] | IC50 (EphrinB2-EphB2 [1]; [5]) [nM] | IC50 (EphrinB2-EphB2 [1]; [6]) [nM] | IC50 (EphrinB2-EphB2 [1]; [7]) [nM] | IC50 (EphrinB2-EphB2 [1]; [8]) [nM] | IC50 (EphrinB2-EphB2 [1]; [9]) [nM] | inhibition of EphrinB2-EphB interactions (EphrinB2-EphB2 [2]) | inhibition at 3.2 µM (EphrinB2-EphB1; [10]) [%] | inhibition at 3.2 µM (EphrinB2-EphB1; [11]) [%] | inhibition at 3.2 µM (EphrinB2-EphB2 [2]; [10]) [%] | inhibition at 3.2 µM (EphrinB2-EphB2 [2]; [11]) [%] | also measured
1 | Oc1ccc(CN2CCOCC2)c2cccnc12 [Compound 1, 5-(morpholinomethyl)quinolin-8-ol] | > 1600 | > 1600 | > 1600 | > 1600 | > 1600 | > 1600 | > 1600 | generally less active towards all three interactions | – | – | – | – | tetramerization inhibitor activity (EphrinB2-EphB2 [1]): only weak ability to inhibit formation of the EB2-EphB2 tetramer
2 | Oc1c(Cl)cc(CN2CCOCC2)c2cccnc12 [Compound 3, 7-chloro-5-(morpholinomethyl)quinolin-8-ol] | 2400 | 2340 | 1700 | – | 1120 | 1050 | ~500 | activity similar to A20-I max control | 48.4 | 34.2 | 78.1 | 64.1 | –
3 | Oc1c(Cl)cc(CN2CCOCC2)c2cccnc12 [Compound 4, 4-((7-chloro-8-hydroxyquinolin-1-ium-5-yl)methyl)morpholin-4-ium chloride] | 930 | 1260 | 760 | 510 | 530 | 550 | – | – | – | – | – | – | EphB1 Inhibition Percent, Inhibition of Association ONLY (EphrinB2-EphB1; at 3.2 μM and 80 seconds, immobilized human EphrinB2, 25 nM soluble human EphB1): 34.2%; EphB1 Inhibition Percent, Inhibition of Association-Dissociation (EphrinB2-EphB1; at 3.2 μM and 580 seconds, immobilized human EphrinB2, 25 nM soluble human EphB1): 48.4%; EphB2 Inhibition Percent, Inhibition of Association ONLY (EphrinB2-EphB2 [2]; at 3.2 μM and 80 seconds, immobilized human EphrinB2, 25 nM soluble human EphB2): 64.1%; EphB2 Inhibition Percent, Inhibition of Association-Dissociation (EphrinB2-EphB2 [2]; at 3.2 μM and 580 seconds, immobilized human EphrinB2, 25 nM soluble human EphB2): 78.1%
4 | Oc1c(Br)cc(CN2CCOCC2)c2cccnc12 [Compound 5, 7-bromo-5-(morpholinomethyl)quinolin-8-ol] | – | – | – | – | – | – | ~500 | – | 45.2 | 25.1 | 75.7 | 55.4 | IC50 (EphrinB2-EphB2 [1]; absolute IC50, association, dissociation and AUC, A20 salt): ~1000 nM and 1000 nM; IC50 (EphrinB2-EphB2 [1]; effective/relative IC50, A20 salt): < 1000 nM; association slope (EphrinB2-EphB2 [1]; in presence of A20, role: inhibitor, 20° without): 10 °; IC (maximum) (EphrinB2-EphB2 [1]; read-out: concentration producing maximum inhibition): 1 µM; inhibition at 1 µM (EphrinB2-EphB2 [1]; read-out: reduction of association response): ~50%
